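Growth conditions: 96-well plates. Treatment: test compound, 48 hours, 5 concentrations. Analysis: linear interpolation between bracketing concentrations; unreached endpoints set to highest concentration. At the GI50, growth is halved.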 The source made the active and inactive calls. Cut-off read from the data, not from the text of the source: active = GI50 up to about 1.1 µM and inactive = higher.
Tests used:
Assay in all cases: NCI-60 cell line screen, 48 h
BT-549 = tested on: BT-549
MDA-N = tested on: MDA-N
HCC 2998 = tested on: HCC 2998
KM12 = tested on: KM12
M14 = tested on: M14
MOLT-4 = tested on: MOLT-4
MCF7 = tested on: MCF7
SK-MEL-2 = tested on: SK-MEL-2
LOX IMVI = tested on: LOX IMVI
NCI-H460 = tested on: NCI-H460
U-251 = tested on: U-251
PC-3 = tested on: PC-3
EKVX = tested on: EKVX
HT-29 = tested on: HT-29
SK-MEL-28 = tested on: SK-MEL-28
SK-MEL-5 = tested on: SK-MEL-5
NCI-H23 = tested on: NCI-H23
A549 = tested on: A549
HOP-62 = tested on: HOP-62
NCI/ADR-RES = tested on: NCI/ADR-RES
UACC-62 = tested on: UACC-62
HL-60 = tested on: HL-60
786-0 = tested on: 786-0
Malme-3M = tested on: Malme-3M
SK-OV-3 = tested on: SK-OV-3
OVCAR-4 = tested on: OVCAR-4
SW-620 = tested on: SW-620
CCRF-CEM = tested on: CCRF-CEM
TK-10 = tested on: TK-10
RXF 393 = tested on: RXF 393
SNB-75 = tested on: SNB-75
MDA-MB-435 = tested on: MDA-MB-435
COLO 205 = tested on: COLO 205
MDA-MB-231 = tested on: MDA-MB-231
CAKI-1 = tested on: CAKI-1
SF-539 = tested on: SF-539
HOP-92 = tested on: HOP-92
A498 = tested on: A498
SF-295 = tested on: SF-295
UACC-257 = tested on: UACC-257
OVCAR-8 = tested on: OVCAR-8
UO-31 = tested on: UO-31
IGROV-1 = tested on: IGROV-1
OVCAR-5 = tested on: OVCAR-5
SR = tested on: SR
NCI-H226 = tested on: NCI-H226
OVCAR-3 = tested on: OVCAR-3
ACHN = tested on: ACHN
SNB-19 = tested on: SNB-19
Hs-578T = tested on: Hs-578T
SN12C = tested on: SN12C
HCT-15 = tested on: HCT-15
HCT-116 = tested on: HCT-116
DU-145 = tested on: DU-145
NCI-H522 = tested on: NCI-H522
K562 = tested on: K562
SF-268 = tested on: SF-268

Measured: GI50

O=C1Nc2c(Cl)cc(Cl)cc2/C1=N/NC(=O)c1ccccc1O
14.8 µM: HCT-15
inactive: BT-549 14.5 µM | MDA-N 14.4 µM | HCC 2998 16.7 µM | KM12 15.5 µM | M14 16.1 µM | MOLT-4 10 µM | MCF7 19.1 µM | SK-MEL-2 12.7 µM | LOX IMVI 12.9 µM | NCI-H460 13.5 µM | U-251 8.51 µM | PC-3 14.8 µM | EKVX 13.2 µM | HT-29 18.7 µM | SK-MEL-28 15.5 µM | SK-MEL-5 14.8 µM | NCI-H23 18.2 µM | A549 13.2 µM | HOP-62 15.4 µM | NCI/ADR-RES 11.5 µM | UACC-62 12.1 µM | HL-60 15.1 µM | 786-0 12.8 µM | Malme-3M 13.6 µM | SK-OV-3 16.8 µM | OVCAR-4 13.4 µM | SW-620 16.9 µM | CCRF-CEM 11.2 µM | TK-10 15.2 µM | RXF 393 12.2 µM | SNB-75 9.77 µM | MDA-MB-435 13.2 µM | COLO 205 22.3 µM | MDA-MB-231 15.6 µM | CAKI-1 16.8 µM | SF-539 14.6 µM | HOP-92 15 µM | A498 16.5 µM | SF-295 14.9 µM | UACC-257 17.9 µM | OVCAR-8 12.3 µM | UO-31 11.9 µM | IGROV-1 12.3 µM | OVCAR-5 18.3 µM | SR 5.4 µM | NCI-H226 14.8 µM | OVCAR-3 11.2 µM | ACHN 12.8 µM | SNB-19 14.4 µM | Hs-578T 14.8 µM | SN12C 16.7 µM | HCT-116 13.6 µM

CC1=NC(=O)CNN1C1=NNC2(C(=O)N1)c1ccccc1-c1ccccc12
inactive: BT-549 > 100 µM | MDA-N > 100 µM | HCC 2998 > 100 µM | M14 > 100 µM | MCF7 > 100 µM | SK-MEL-2 > 100 µM | LOX IMVI > 100 µM | NCI-H460 > 100 µM | U-251 > 100 µM | PC-3 > 100 µM | EKVX > 100 µM | HT-29 > 100 µM | SK-MEL-28 > 100 µM | SK-MEL-5 > 100 µM | NCI-H23 > 100 µM | A549 > 100 µM | HOP-62 > 100 µM | NCI/ADR-RES > 100 µM | UACC-62 > 100 µM | HL-60 > 100 µM | 786-0 > 100 µM | Malme-3M > 100 µM | SK-OV-3 > 100 µM | OVCAR-4 > 100 µM | SW-620 > 100 µM | CCRF-CEM > 100 µM | TK-10 > 100 µM | RXF 393 > 100 µM | SNB-75 > 100 µM | MDA-MB-435 > 100 µM | COLO 205 > 100 µM | MDA-MB-231 > 100 µM | CAKI-1 > 100 µM | SF-539 > 100 µM | HOP-92 > 100 µM | DU-145 > 100 µM | A498 > 100 µM | SF-295 > 100 µM | UACC-257 > 100 µM | OVCAR-8 > 100 µM | UO-31 > 100 µM | IGROV-1 > 100 µM | OVCAR-5 > 100 µM | SR 55 µM | NCI-H226 > 100 µM | OVCAR-3 > 100 µM | ACHN > 100 µM | SNB-19 > 100 µM | NCI-H522 > 100 µM | Hs-578T 23.5 µM | SN12C > 100 µM | K562 > 100 µM | HCT-116 > 100 µM | SF-268 > 100 µM
> 100 µM: HCT-15

Cc1cc(/N=C/c2c(CO)cnc(C)c2O)c(/N=C/c2c(CO)cnc(C)c2O)cc1C.[Zn+2]
inactive: BT-549 > 100 µM | MDA-N > 100 µM | HCC 2998 > 100 µM | KM12 > 100 µM | M14 > 100 µM | MOLT-4 > 100 µM | SK-MEL-2 > 100 µM | LOX IMVI > 100 µM | NCI-H460 > 100 µM | HT-29 > 100 µM | SK-MEL-5 > 100 µM | A549 > 100 µM | HOP-62 > 100 µM | NCI/ADR-RES > 100 µM | UACC-62 > 100 µM | 786-0 > 100 µM | OVCAR-4 > 100 µM | TK-10 > 100 µM | SNB-75 > 100 µM | COLO 205 > 100 µM | MDA-MB-231 > 100 µM | CAKI-1 > 100 µM | SF-539 > 100 µM | HOP-92 > 100 µM | A498 > 100 µM | SF-295 > 100 µM | OVCAR-8 > 100 µM | UO-31 > 100 µM | IGROV-1 > 100 µM | NCI-H226 > 100 µM | ACHN > 100 µM | SNB-19 > 100 µM | NCI-H522 > 100 µM | Hs-578T > 100 µM | HCT-116 > 100 µM

Reference: ChEMBL document CHEMBL1201862, “PubChem BioAssay data set” (2004)
